{"source": "patent US20140242093A1", "about": "“METHODS AND COMPOSITIONS FOR MODULATING THE INNATE IMMUNE RESPONSE AND/OR MYOGENESIS IN A MAMMALIAN SUBJECT” (FRED HUTCHINSON CANCER RESEARCH CENTER, priority 2011, published 2014)", "system": "control human primary myoblasts", "experiment": "Expression microarray of primary myoblasts transduced with lentivirus carrying DUX4-fl, DUX4-s or GFP", "procedure": "Primary human myoblasts were collected and cultured as previously described (Snider et al., 2010). Primary myoblasts were maintained at or below 70% confluency for proliferation. For differentiation, cells were allowed to reach 95-100% confluency in growth medium. Once confluency was reached, the cells were changed to differentiation medium (F10 media supplemented with 1% horse serum, 10 μg/mL insulin, and 10 μg/mL transferrin, penicillin/streptomycin) and maintained for 4 days. Human RD cells were grown in DMEM in 10% bovine calf serum (Hyclone) and penicillin/streptomycin. The primary myoblasts were transduced with lentivirus carrying DUX-fl, DUX4- or GFP (MOI=15).\nExpression microarrays were performed on the transduced cells at 24 hours after transduction as follows. […] Samples were analyzed by Illumina Human Whole Genome microarrays. Probe intensities were corrected, normalized, and summarized by the Lumi package of Bioconductor (Du et al., 2008). Differentially expressed genes were identified by the LIMMA package of Bioconductor (Wettenhall and Smyth, 2004). Gene set enrichment analysis (GSEA) was performed using the Bioconductor GOstats package (Falcon and Gentleman, 2007)."}
{"substance": "DUX4-fl: full-length DUX4 protein (SEQ ID NO:110), expressed from lentiviral or pCS2 vectors or in vitro translated", "values": [{"measurement": "GPBAR1 expression fc", "setting": "Refseq NM_170699.2", "value": 1.936}, {"measurement": "NLRX1 fc", "setting": "Refseq NM_170722.1", "value": "−1.167"}, {"measurement": "fc of HSCB (expression array)", "setting": "Refseq NM_172002.3", "value": "−1.009"}, {"measurement": "fc of ZNF650 (expression array)", "setting": "Refseq NM_172070.2", "value": "−1.016"}, {"measurement": "fc of IL4I1 (expression array)", "setting": "Refseq NM_172374.1", "value": "−0.7571"}, {"measurement": "KLF17 expression fc", "setting": "Refseq NM_173484.3", "value": 1.779}, {"measurement": "fc of RCOR2 (expression array)", "setting": "Refseq NM_173587.2", "value": "−1.051"}, {"measurement": "fc of DCBLD1 (expression array)", "setting": "Refseq NM_173674.1", "value": "−0.667"}, {"measurement": "WARS expression fc", "setting": "Refseq NM_173701.1, cultured human skeletal muscle", "value": "−1.917"}, {"measurement": "fc of C3orf38 (expression array)", "setting": "Refseq NM_173824.2", "value": "−0.5458"}, {"measurement": "fc of UBR1 (expression array)", "setting": "Refseq NM_174916.1", "value": "−0.08618"}, {"measurement": "fc of C4orf34 (expression array)", "setting": "Refseq NM_174921.1", "value": "−1.044"}, {"measurement": "FRMD3 fc", "setting": "Refseq NM_174938.3", "value": "−1.116"}, {"measurement": "MT1E expression fc", "setting": "Refseq NM_175617.3, cultured human skeletal muscle", "value": "−2.067"}, {"measurement": "TXLNA fc", "setting": "Refseq NM_175852.3", "value": "−1.157"}, {"measurement": "MT1M expression fc", "setting": "Refseq NM_176870.2, cultured human skeletal muscle", "value": "−2.921"}, {"measurement": "PPAP2A fc", "setting": "Refseq NM_176895.1", "value": "−1.106"}, {"measurement": "CSE1L expression fc", "setting": "Refseq NM_177436.1", "value": 2.937}, {"measurement": "PPM1B expression fc", "setting": "Refseq NM_177968.2", "value": 1.831}, {"measurement": "fc of STARD13 (expression array)", "setting": "Refseq NM_178006.1", "value": "−1.001"}, {"measurement": "RILPL1 fc", "setting": "Refseq NM_178314.2", "value": "−1.072"}, {"measurement": "HIF1A fc", "setting": "Refseq NM_181054.1", "value": "−1.15"}, {"measurement": "ID1 fc", "setting": "Refseq NM_181353.1", "value": "−1.166"}, {"measurement": "C1QTNF3 expression fc", "setting": "Refseq NM_181435.4", "value": 1.974}, {"measurement": "PPP2R2B expression fc", "setting": "Refseq NM_181677.1", "value": 4.13}, {"measurement": "PPP2R2C fc", "setting": "Refseq NM_181876.2", "value": "−1.064"}, {"measurement": "BCL9L fc", "setting": "Refseq NM_182557.2", "value": "−1.111"}, {"measurement": "fc of IRF2BP2 (expression array)", "setting": "Refseq NM_182972.2", "value": "−1.041"}, {"measurement": "fc of TRIM69 (expression array)", "setting": "Refseq NM_182985.3", "value": "−1.002"}, {"measurement": "fc of TRIM55 (expression array)", "setting": "Refseq NM_184086.1", "value": "−1.053"}, {"measurement": "RBM39 expression fc", "setting": "Refseq NM_184234.1", "value": 1.8}, {"measurement": "INO80C expression fc", "setting": "Refseq NM_194281.3", "value": 1.98}, {"measurement": "SPTY2D1 expression fc", "setting": "Refseq NM_194285.2", "value": 3.286}, {"measurement": "fc of RNASE4 (expression array)", "setting": "Refseq NM_194431.1", "value": "−1.06"}, {"measurement": "BID fc", "setting": "Refseq NM_197966.1", "value": "−1.078"}, {"measurement": "fc of MZF1 (expression array)", "setting": "Refseq NM_198055.1", "value": "−1.004"}, {"measurement": "fc of ARSK (expression array)", "setting": "Refseq NM_198150.1", "value": "−0.8435"}, {"measurement": "fc of SRC (expression array)", "setting": "Refseq NM_198291.1", "value": "−1.041"}, {"measurement": "fc of APOOL (expression array)", "setting": "Refseq NM_198450.3", "value": "−0.5757"}, {"measurement": "DENND2C expression fc", "setting": "Refseq NM_198459.2", "value": 2.609}, {"measurement": "TPRX1 expression fc", "setting": "Refseq NM_198479.2", "value": 4.483}, {"measurement": "AGRN expression fc", "setting": "Refseq NM_198576.2, cultured human skeletal muscle", "value": "−2.612"}, {"measurement": "C1QTNF1 expression fc", "setting": "Refseq NM_198594.1, cultured human skeletal muscle", "value": "−3.846"}, {"measurement": "fc of SERPINB8 (expression array)", "setting": "Refseq NM_198833.1", "value": "−0.1046"}, {"measurement": "SEMA4B expression fc", "setting": "Refseq NM_198925.1, cultured human skeletal muscle", "value": "−1.94"}, {"measurement": "C9orf169 expression fc", "setting": "Refseq NM_199001.1, cultured human skeletal muscle", "value": "−2.509"}, {"measurement": "T1560 expression fc", "setting": "Refseq NM_199048.1", "value": 2.769}, {"measurement": "XAF1 expression fc", "setting": "Refseq NM_199139.1, cultured human skeletal muscle", "value": "−3.622"}, {"measurement": "SAA1 expression fc", "setting": "Refseq NM_199161.1, cultured human skeletal muscle", "value": "−4.138"}, {"measurement": "C20orf117 fc", "setting": "Refseq NM_199181.2", "value": "−1.08"}, {"measurement": "fc of TMEM189-UBE2V1 (expression array)", "setting": "Refseq NM_199203.1", "value": "−1.036"}, {"measurement": "DGKA expression fc", "setting": "Refseq NM_201554.1, cultured human skeletal muscle", "value": "−1.955"}, {"measurement": "fc of ZMYM3 (expression array)", "setting": "Refseq NM_201599.1", "value": "−1.022"}, {"measurement": "FBXO33 expression fc", "setting": "Refseq NM_203301.1", "value": 3.22}, {"measurement": "SYNJ1 expression fc", "setting": "Refseq NM_203446.1", "value": 2.433}, {"measurement": "fc of CMPK2 (expression array)", "setting": "Refseq NM_207315.2", "value": "−0.8826"}, {"measurement": "CYP4V2 fc", "setting": "Refseq NM_207352.2", "value": "−1.159"}, {"measurement": "fc of C15orf52 (expression array)", "setting": "Refseq NM_207380.1", "value": "−1.016"}, {"measurement": "FLJ45337 expression fc", "setting": "Refseq NM_207465.1", "value": 3.685}, {"measurement": "ATP2B1 fc", "setting": "Refseq NM_001001323.1", "value": "−1.082"}, {"measurement": "FLJ45139 expression fc", "setting": "Refseq NM_001001692.1", "value": 2.451}, {"measurement": "OR2T34 expression fc", "setting": "Refseq NM_001001821.1", "value": 4.519}, {"measurement": "fc of GPM6B (expression array)", "setting": "Refseq NM_001001995.1", "value": "−0.3998"}, {"measurement": "NT5C1B expression fc", "setting": "Refseq NM_001002006.1", "value": 3.495}, {"measurement": "fc of NT5C3 (expression array)", "setting": "Refseq NM_001002010.1", "value": "−0.6592"}, {"measurement": "RAB11FIP1 expression fc", "setting": "Refseq NM_001002814.1", "value": 1.987}, {"measurement": "fc of LEPR (expression array)", "setting": "Refseq NM_001003679.1", "value": "−1"}, {"measurement": "ZNF705A expression fc", "setting": "Refseq NM_001004328.1", "value": 6.832}, {"measurement": "HIST2H3A expression fc", "setting": "Refseq NM_001005464.2", "value": 4.945}, {"measurement": "GBA fc", "setting": "Refseq NM_001005742.1", "value": "−1.065"}, {"measurement": "SIAH1 expression fc", "setting": "Refseq NM_001006610.1", "value": 3.699}, {"measurement": "OPTN fc", "setting": "Refseq NM_001008213.1", "value": "−1.113"}, {"measurement": "SLC7A2 expression fc", "setting": "Refseq NM_001008539.2, cultured human skeletal muscle", "value": "−2.482"}, {"measurement": "CXCR4 expression fc", "setting": "Refseq NM_001008540.1", "value": 2.004}, {"measurement": "fc of CLSTN1 (expression array)", "setting": "Refseq NM_001009566.1", "value": "−1.009"}, {"measurement": "PRAMEF4 expression fc", "setting": "Refseq NM_001009611.1", "value": 7.06}, {"measurement": "C6orf191 expression fc", "setting": "Refseq NM_001010876.1", "value": 2.091}, {"measurement": "PRAMEF6 expression fc", "setting": "Refseq NM_001010889.2", "value": 5.826}, {"measurement": "PRAMEF9 expression fc", "setting": "Refseq NM_001010890.1", "value": 7.131}, {"measurement": "PRAMEF8 expression fc", "setting": "Refseq NM_001012276.1", "value": 3.701}, {"measurement": "PRAMEF7 expression fc", "setting": "Refseq NM_001012277.1", "value": 7.631}]}
